Measured values reported in ChEMBL document CHEMBL1136657, “Novel ether derivatives of mannopeptimycin glycopeptide antibiotic” (2003).
≈ marks a conversion by molar mass, not a printed value.

Assays:
[1] = tested on: Enterococcus faecium; assay: Minimum inhibitory concentration against Enterococcus faecium (GC 2243) was determined; format: functional
[2] = tested on: Bacillus cereus; assay: Minimum inhibitory concentration against Bacillus cereus (GC 4561) was determined; format: functional
[3] = tested on: Escherichia coli; assay: Minimum inhibitory concentration against Escherichia coli (GC 4564) was determined; format: functional
[4] = tested on: Streptococcus pneumoniae; assay: Minimum inhibitory concentration against Streptococcus pneumoniae (GC 1894) was determined; format: functional
[5] = tested on: Staphylococcus aureus; assay: Minimum inhibitory concentration against Staphylococcus aureus (GC 4545) was determined; format: functional
[6] = tested on: Enterococcus faecalis; assay: Minimum inhibitory concentration against Enterococcus faecalis (GC 6189) was determined; format: functional
[7] = tested on: Staphylococcus aureus; assay: Minimum inhibitory concentration against Staphylococcus aureus (GC 4543) was determined; format: functional
[8] = tested on: Escherichia coli; assay: Minimum inhibitory concentration against Escherichia coli (GC 2203) was determined; format: functional
[9] = Minimum inhibitory concentration against SCN (GC 4551) was determined; format: functional
[10] = tested on: Enterococcus faecalis; assay: Minimum inhibitory concentration against Enterococcus faecalis (GC 4554) was determined; format: functional
[11] = Minimum inhibitory concentration against SCN (GC 4549) was determined; format: functional
[12] = tested on: Micrococcus luteus; assay: Minimum inhibitory concentration against Sarcina lutea (GC 4562) was determined; format: functional
[13] = tested on: Enterococcus faecalis; assay: Minimum inhibitory concentration against Enterococcus faecalis (GC 4552) was determined; format: functional
[14] = tested on: Enterococcus faecalis; assay: Minimum inhibitory concentration against Enterococcus faecalis (GC 2242) was determined; format: functional
[15] = Minimum inhibitory concentration against SCN (GC 6257) was determined; format: functional
[16] = tested on: Staphylococcus aureus; assay: Minimum inhibitory concentration against Staphylococcus aureus (GC 1131) was determined; format: functional
[17] = tested on: Streptococcus pneumoniae; assay: Minimum inhibitory concentration against Streptococcus pneumoniae (GC 4565) was determined; format: functional
[18] = tested on: Streptococcus agalactiae; assay: Minimum inhibitory concentration against Streptococcus agalactiae (GC4564) was determined; format: functional
[19] = Minimum inhibitory concentration against SCN (GC 4548) was determined; format: functional
[20] = tested on: Streptococcus pneumoniae; assay: Minimum inhibitory concentration against Streptococcus pneumoniae (GC 6242) was determined; format: functional
[21] = tested on: Escherichia coli; assay: Minimum inhibitory concentration against Escherichia coli (GC 4560) was determined; format: functional
[22] = Minimum inhibitory concentration against SCN (GC 4547) was determined; format: functional
[23] = tested on: Enterococcus faecalis; assay: Minimum inhibitory concentration against Enterococcus faecalis (GC 4553) was determined; format: functional
[24] = tested on: Staphylococcus aureus; assay: Minimum inhibitory concentration against Staphylococcus aureus (GC 3066) was determined; format: functional
[25] = tested on: Enterococcus faecalis; assay: Minimum inhibitory concentration against Enterococcus faecalis (GC 3059) was determined; format: functional
[26] = tested on: Enterococcus faecium; assay: Minimum inhibitory concentration against Enterococcus faecium (GC 4557) was determined; format: functional
[27] = tested on: Staphylococcus aureus; assay: Minimum inhibitory concentration against Staphylococcus aureus (GC 3051) was determined; format: functional
[28] = tested on: Staphylococcus aureus; assay: Minimum inhibitory concentration against Staphylococcus aureus (GC 2216) was determined; format: functional
[29] = tested on: Candida albicans; assay: Minimum inhibitory concentration against Candida albicans GC 3066 was determined; format: functional
[30] = tested on: Enterococcus avium; assay: Minimum inhibitory concentration against Enterococcus avium (GC 4558) was determined; format: functional
[31] = tested on: Enterococcus faecalis; assay: Minimum inhibitory concentration against Enterococcus faecalis (GC 2691) was determined; format: functional
[32] = tested on: Streptococcus pyogenes; assay: Minimum inhibitory concentration against Streptococcus pyogenes (GC 4563) was determined; format: functional
[33] = tested on: Staphylococcus aureus; assay: Minimum inhibitory concentration against Staphylococcus aureus (GC 4544) was determined; format: functional
[34] = tested on: Pseudomonas aeruginosa; assay: Minimum inhibitory concentration against Pseudomonas aeruginosa (GC 2214) control was determined; format: functional
[35] = tested on: Morganella morganii; assay: Minimum inhibitory concentration against Morganella morganii (GC 4381) was determined; format: functional
[36] = tested on: Enterococcus faecium; assay: Minimum inhibitory concentration against Enterococcus faecium (GC 4556) was determined; format: functional
[37] = tested on: Staphylococcus aureus; assay: Minimum inhibitory concentration against Staphylococcus aureus (GC 4542) was determined; format: functional
[38] = tested on: Staphylococcus aureus; assay: Minimum inhibitory concentration against Staphylococcus aureus (GC 4541 was determined; format: functional
[39] = tested on: Staphylococcus haemolyticus; assay: Minimum inhibitory concentration against Staphylococcus haemolyticus (GC 4546) was determined
[40] = tested on: Enterococcus faecalis; assay: Minimum inhibitory concentration against Enterococcus faecalis (GC 4555) was determined; format: functional
[41] = tested on: Staphylococcus aureus; assay: Minimum inhibitory concentration against Staphylococcus aureus smith; format: functional
[42] = tested on: Mus musculus; assay: In vivo activity against Staphylococcus aureus smith was determined after iv administration in mice; format: functional; conditions: Mus musculus, iv; read-out: ED50

COc1ccc2cc(CO[C@H]3[C@H](O)[C@@H](CO)OC(O[C@H]4[C@H](O)[C@H](O)[C@@H](Oc5ccc(C[C@H]6NC(=O)[C@H]([C@@H](C)c7ccccc7)NC(=O)CNC(=O)[C@H](CO)NC(=O)[C@@H]([C@@H](O)[C@@H]7CN=C(N)N7[C@H]7O[C@H](O)[C@@H](O)[C@H](O)[C@@H]7O)NC(=O)[C@H]([C@@H](O)[C@@H]7CN=C(N)N7)NC6=O)cc5)O[C@@H]4CO)[C@H]3O)ccc2c1 (some centres not stated)
MIC [1]: 8 µg/mL (≈ 5.51 µM)
MIC [2]: 2 µg/mL (≈ 1.38 µM)
MIC [3]: 128 µg/mL (≈ 88.2 µM)
MIC [4]: 0.12 µg/mL (≈ 0.0827 µM)
MIC [5]: 2 µg/mL (≈ 1.38 µM)
MIC [6]: 4 µg/mL (≈ 2.76 µM)
MIC [7]: 2 µg/mL (≈ 1.38 µM)
MIC [8]: 128 µg/mL (≈ 88.2 µM)
MIC [9]: 2 µg/mL (≈ 1.38 µM)
MIC [10]: 8 µg/mL (≈ 5.51 µM)
MIC [11]: 1 µg/mL (≈ 0.689 µM)
MIC [12]: 0.25 µg/mL (≈ 0.172 µM)
MIC [13]: 8 µg/mL (≈ 5.51 µM)
MIC [14]: 8 µg/mL (≈ 5.51 µM)
MIC [15]: 1 µg/mL (≈ 0.689 µM)
MIC [16]: 4 µg/mL (≈ 2.76 µM)
MIC [17]: 0.25 µg/mL (≈ 0.172 µM)
MIC [18]: 0.5 µg/mL (≈ 0.344 µM)
MIC [19]: 1 µg/mL (≈ 0.689 µM)
MIC [20]: 0.25 µg/mL (≈ 0.172 µM)
MIC [21]: 1 µg/mL (≈ 0.689 µM)
MIC [22]: 2 µg/mL (≈ 1.38 µM)
MIC [23]: 8 µg/mL (≈ 5.51 µM)
MIC [24]: 2 µg/mL (≈ 1.38 µM)
MIC [25]: 8 µg/mL (≈ 5.51 µM)
MIC [26]: 0.25 µg/mL (≈ 0.172 µM)
MIC [27]: 2 µg/mL (≈ 1.38 µM)
MIC [28]: 2 µg/mL (≈ 1.38 µM)
MIC [29]: > 64 µg/mL
MIC [30]: 2 µg/mL (≈ 1.38 µM)
MIC [31]: 8 µg/mL (≈ 5.51 µM)
MIC [32]: 0.5 µg/mL (≈ 0.344 µM)
MIC [33]: 4 µg/mL (≈ 2.76 µM)
MIC [34]: > 128 µg/mL
MIC [35]: > 128 µg/mL
MIC [36]: 8 µg/mL (≈ 5.51 µM)
MIC [37]: 1 µg/mL (≈ 0.689 µM)
MIC [38]: 2 µg/mL (≈ 1.38 µM)
MIC [39]: 1 µg/mL (≈ 0.689 µM)
MIC [40]: 8 µg/mL (≈ 5.51 µM)

COc1ccc2cc(CO[C@H]3[C@H](O)[C@H](O)[C@@H](O[C@H]4[C@H](O)[C@H](O)[C@@H](Oc5ccc(C[C@H]6NC(=O)[C@H]([C@@H](C)c7ccccc7)NC(=O)CNC(=O)[C@H](CO)NC(=O)[C@@H]([C@@H](O)[C@@H]7CN=C(N)N7[C@H]7O[C@H](O)[C@@H](O)[C@H](O)[C@@H]7O)NC(=O)[C@H]([C@@H](O)[C@@H]7CN=C(N)N7)NC6=O)cc5)O[C@@H]4CO)O[C@@H]3CO)ccc2c1
MIC [1]: 2 µg/mL (≈ 1.38 µM)
MIC [2]: 1 µg/mL (≈ 0.689 µM)
MIC [3]: 32 µg/mL (≈ 22 µM)
MIC [41]: 0.5 µg/mL (≈ 0.344 µM)
MIC [4]: ≤ 0.06 µg/mL
MIC [5]: 0.5 µg/mL (≈ 0.344 µM)
MIC [6]: 1 µg/mL (≈ 0.689 µM)
MIC [7]: 0.5 µg/mL (≈ 0.344 µM)
MIC [8]: 32 µg/mL (≈ 22 µM)
MIC [9]: 0.25 µg/mL (≈ 0.172 µM)
ED50 [42]: 0.06 mg/kg
MIC [10]: 2 µg/mL (≈ 1.38 µM)
MIC [11]: 0.12 µg/mL (≈ 0.0827 µM)
MIC [12]: ≤ 0.06 µg/mL
MIC [13]: 2 µg/mL (≈ 1.38 µM)
MIC [14]: 2 µg/mL (≈ 1.38 µM)
MIC [15]: 0.25 µg/mL (≈ 0.172 µM)
MIC [16]: 0.5 µg/mL (≈ 0.344 µM)
MIC [17]: ≤ 0.06 µg/mL
MIC [18]: ≤ 0.06 µg/mL
MIC [19]: 0.12 µg/mL (≈ 0.0827 µM)
MIC [20]: ≤ 0.06 µg/mL
MIC [21]: 0.25 µg/mL (≈ 0.172 µM)
MIC [22]: 0.5 µg/mL (≈ 0.344 µM)
MIC [23]: 2 µg/mL (≈ 1.38 µM)
MIC [24]: 1 µg/mL (≈ 0.689 µM)
MIC [25]: 2 µg/mL (≈ 1.38 µM)
MIC [26]: 1 µg/mL (≈ 0.689 µM)
MIC [27]: 1 µg/mL (≈ 0.689 µM)
MIC [28]: 1 µg/mL (≈ 0.689 µM)
MIC [29]: > 64 µg/mL
MIC [30]: 2 µg/mL (≈ 1.38 µM)
MIC [31]: 2 µg/mL (≈ 1.38 µM)
MIC [32]: ≤ 0.06 µg/mL
MIC [33]: 1 µg/mL (≈ 0.689 µM)
MIC [34]: > 64 µg/mL
MIC [35]: 64 µg/mL (≈ 44.1 µM)
MIC [36]: 2 µg/mL (≈ 1.38 µM)
MIC [37]: 0.25 µg/mL (≈ 0.172 µM)
MIC [38]: 0.5 µg/mL (≈ 0.344 µM)
MIC [39]: 0.25 µg/mL (≈ 0.172 µM)
MIC [40]: 2 µg/mL (≈ 1.38 µM)
